Values belong to the compound of their own block, whether it stands above or below them.
Columns and labels:
[1] = Inhibition of human HSP70 ATPase activity at incubated for 3 hrs by malachite green reagent based HTS analysis
[2] = Inhibition of HSP70 in human HeLa C3 cells overexpressing tau protein assessed as reduction in tau protein level measured after 24 hrs by Western blot analysis; assay type: cell-based; settings: HeLa C3, 24 h
SK-N-BE(2)-M17 = assay: Inhibition of HSP70 in human SK-N-BE(2)-M17 cells overexpressing tau protein assessed as reduction in tau protein level at 0.025 to 9 uM measured after 24 hrs by Western blot analysis relative to control; assay type: cell-based; settings: dose 0.025-9 µM
HeLa C3 = assay: Inhibition of HSP70 in human HeLa C3 cells overexpressing tau protein assessed as reduction in tau protein level at 0.025 to 9 uM measured after 24 hrs by Western blot analysis relative to control; assay type: cell-based; settings: dose 0.025-9 µM
[3] = Inhibition of HSP70 in human SK-N-BE(2)-M17 cells overexpressing tau protein assessed as reduction in tau protein level measured after 24 hrs by Western blot analysis; assay type: cell-based; settings: SK-N-BE(2)-M17, 24 h
Homo sapiens = species on record: Homo sapiens; assay: Inhibition of human HSP70 ATPase activity at 10 uM incubated for 3 hrs by malachite green reagent based HTS analysis relative to control
Drosophila = assay: Inhibition of tau protein accumulation in Drosophila larvae eye assessed as reduction in tau protein level at 0.75 mg/ml dripped every other day by immunohistochemistry; assay type: functional
[4] = Induction of SirT2 production in mouse N2a cells transfected with ApoE4 assessed as increase in SirT2 levels by sandwich ELISA; assay type: functional, cell-based
[5] = Reduction of tau protein level in human HeLa C3 cells transfected with human 4R0N tau at 30 uM incubated for 24 hrs by Western blot analysis relative to control; assay type: functional; design: scale not given: the % may be the effect or the level left
[6] = Tmax in mouse brain at 10 mg/kg, ip; assay type: ADME, organism-based
[7] = Cmax in mouse brain at 10 mg/kg, ip; assay type: ADME, organism-based; design: dose 10 mg/kg, route ip; settings: in vivo

IC50 [1]: 83 µM
SMILES: CN(C)c1ccc2nc3ccc(N(C)C)cc3[s+]c2c1 [METHYLENE BLUE ANHYDROUS]

inhibition (Homo sapiens): > 80%
SMILES: CN(C)c1ccc2nc3ccc(=[N+](C)C)cc-3sc2c1

Tmax [6]: 30 min | Cmax [7]: 1.5 ng/mg
SMILES: CCNC1=NC(c2ccc(F)cc2)NC(=O)N1 (stereo unspecified)

IC50 [1]: 11 µM | inhibition (Homo sapiens): > 80%
SMILES: CNc1ccc2nc3ccc(N)cc3[s+]c2c1 [AZURE C]

IC50 [1]: 12 µM | inhibition (Homo sapiens): > 80%
SMILES: O=c1c(O)c(-c2cc(O)c(O)c(O)c2)oc2cc(O)cc(O)c12 [MYRICETIN]

Continued, compound first:

SMILES: CCn1c(=O)/c(=C2\Sc3ccccc3N2C)s/c1=C\c1cccc[n+]1C
EC50 [2]: 0.9 µM | inhibition (SK-N-BE(2)-M17): 75% | inhibition (HeLa C3): 75% | EC50 [3]: 1.5 µM

SMILES: CCn1c(=O)/c(=C2\Sc3ccccc3N2C)s/c1=C\c1cccc[n+]1CC
EC50 [2]: 8 µM

SMILES: O=C1C(Cl)=C(N[C@@H](Cc2c[nH]c3ccccc23)C(=O)O)C(=O)c2ccccc21
inhibition at 750 µg/mL (Drosophila): 70%

SMILES: CC(N)C(=O)OC(C)(C)Cc1ccc(Cl)cc1 (stereo unspecified) [ALAPROCLATE]
EC50 [4]: 2 µM

SMILES: CCn1c(=O)/c(=C2\Sc3cc(C(F)(F)F)ccc3N2C)s/c1=C\c1ccccn1
Activity [5]: 50%
